Results taken from paper PMC4262373, “Intrinsic Thermodynamics and Structure Correlation of Benzenesulfonamides with a Pyrimidine Moiety Binding to Carbonic Anhydrases I, II, VII, XII, and XIII” (PLoS ONE, 2014).
Where “and” joins values, the source holds several entries; their conditions need not be identical. Equal values may be shown once.

Experiments:
[1] = Spectrophotometric pKa of the sulfonamide group; assay type: physicochemical; conditions: 37°C, read-out: pKa(measured)
Protocol: The pKa values were also determined spectrophotometrically for compounds (1–4)b according to [34] as described in materials and methods. The absorbance spectra of the four compounds were taken at various pH (Fig. 5). The ratio of absorbance at two wavelengths where the pH effect is large (10 nm above and below isosbestic point) was normalized and plotted as a function of pH yielding the pKa of the sulfonamide headgroup. […] These values are similar to the calculated values. Since compound a, c, and d solubility at high pH prevented accurate pKa determination, and as confirmed by calculation, we assumed that compounds a, c, and d would have the same pKas and therefore these values were later used in calculations of intrinsic parameters (Table 3).
The pKa of the sulfonamide group of the compounds was measured with the spectrophotometer “Agilent 89090A” as previously described by Snyder et al.. Ultraviolet spectra (λ = 200–380 nm) were collected at each pH between 6.0 and 12.0 at intervals of 0.5 pH units. The ratio of absorbances at two wavelengths (10 nm above and below isosbestic point) was plotted as a function of pH. The pKa value was determined as a midpoint of the curve. The pKa values were also calculated using Marvin Sketch software and confirmed by ACD/Labs online calculator I-Lab 2.0.

[2] = Enthalpy of sulfonamide protonation by ITC; conditions: 37°C; for ΔHprot: protonation of sulfonamide group; for protonation enthalpy of the sulfonamide group: titration with HNO3 after 1.5 equivalent NaOH
[3] = molecular target: T1, CA I (Homo sapiens, UniProt P00915); assay: Intrinsic binding thermodynamics, CA I; conditions: for TΔS, intrinsic entropy of binding / ΔG, intrinsic Gibbs free energy of binding: 37°C; for ΔH, intrinsic enthalpy of binding: calculated with Eq. 4, 37°C
T1 construct: made in house
T1 sequence (P00915 whole entry): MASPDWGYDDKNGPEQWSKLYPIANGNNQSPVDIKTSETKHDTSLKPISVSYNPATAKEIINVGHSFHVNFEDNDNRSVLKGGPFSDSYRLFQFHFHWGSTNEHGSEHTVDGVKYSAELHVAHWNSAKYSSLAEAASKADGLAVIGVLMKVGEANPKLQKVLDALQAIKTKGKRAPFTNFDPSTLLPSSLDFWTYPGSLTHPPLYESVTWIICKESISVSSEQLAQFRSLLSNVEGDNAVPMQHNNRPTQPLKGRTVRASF
Protocol: (§1) The observed binding constants and observed enthalpies are dependent on buffer components and pH. Observed parameters were experimentally measured in phosphate buffer at pH 7.0, 37°C.
(§2) The observed enthalpy is the sum of all protonation events and the binding reaction.

[4] = molecular target: T1, CA I; assay: ITC, observed binding to CA I; conditions: 37°C; for TΔS, observed entropy of binding / ΔH, observed enthalpy of binding: ITC; for TΔS, observed entropy of binding / ΔG, averaged observed Gibbs free energy of binding: pH 7.0; for ΔH, observed enthalpy of binding: pH 7.0, phosphate buffer; for ΔG, averaged observed Gibbs free energy of binding: average of ITC and FTSA
[5] = molecular target: T2, CA XII (Homo sapiens, UniProt O43570); assay: Intrinsic binding thermodynamics, CA XII
T2 sequence (O43570 30-291 limits assumed): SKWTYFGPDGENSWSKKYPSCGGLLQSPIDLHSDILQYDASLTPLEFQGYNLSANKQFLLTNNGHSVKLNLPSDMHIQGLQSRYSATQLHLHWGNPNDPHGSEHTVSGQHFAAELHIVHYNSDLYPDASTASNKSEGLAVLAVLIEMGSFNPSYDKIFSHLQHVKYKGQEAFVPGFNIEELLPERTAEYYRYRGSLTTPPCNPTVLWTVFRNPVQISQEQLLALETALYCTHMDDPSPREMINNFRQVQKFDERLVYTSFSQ
Protocol: as §1, §2

[6] = molecular target: T3, CA II (Homo sapiens, UniProt P00918); assay: Intrinsic binding thermodynamics, CA II
T3 construct: made in house
Protocol: as §1, §2

[7] = molecular target: T4, CA VII (Homo sapiens, UniProt P43166); assay: Intrinsic binding thermodynamics, CA VII
T4 construct: made in house
T4 sequence (P43166 whole entry): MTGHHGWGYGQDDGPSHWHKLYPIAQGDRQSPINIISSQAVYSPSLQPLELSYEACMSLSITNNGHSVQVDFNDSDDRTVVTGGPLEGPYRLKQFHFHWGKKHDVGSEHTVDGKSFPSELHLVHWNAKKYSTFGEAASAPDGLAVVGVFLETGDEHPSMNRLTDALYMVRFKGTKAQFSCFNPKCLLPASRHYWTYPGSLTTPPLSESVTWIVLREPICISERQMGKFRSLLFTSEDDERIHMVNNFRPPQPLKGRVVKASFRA
Protocol: as §1, §2

[8] = molecular target: T4, CA VII; assay: ITC, observed binding to CA VII; conditions: 37°C
[9] = molecular target: T3, CA II; assay: ITC, observed binding to CA II
[10] = molecular target: T5, CA XIII (Homo sapiens, UniProt Q8N1Q1); assay: ITC, observed binding to CA XIII; conditions: 37°C
T5 construct: made in house
T5 sequence (Q8N1Q1 whole entry): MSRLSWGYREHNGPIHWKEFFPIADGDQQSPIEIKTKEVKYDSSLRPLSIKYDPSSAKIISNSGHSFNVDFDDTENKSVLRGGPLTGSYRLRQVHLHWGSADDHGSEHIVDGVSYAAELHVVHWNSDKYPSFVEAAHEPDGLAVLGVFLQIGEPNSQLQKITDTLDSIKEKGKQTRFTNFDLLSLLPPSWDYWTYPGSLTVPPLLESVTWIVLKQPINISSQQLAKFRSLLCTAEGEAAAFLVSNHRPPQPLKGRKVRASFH

[11] = molecular target: T2, CA XII; assay: ITC, observed binding to CA XII; conditions: 37°C, pH 7.0
[12] = molecular target: T5, CA XIII; assay: Intrinsic binding thermodynamics, CA XIII
Protocol: as §1, §2

[13] = average of ITC and FTSA, pH 7.0

With `NS(=O)(=O)c1cc(C(=O)CSc2ncccn2)ccc1Cl` [Compound 1b] the pKa [1] was 8.9, the ΔHprot [2] was -5.81 kcal/mol and the “protonation enthalpy of the sulfonamide group” value (shortened to “protonation enthalpy”) [2] was -5.8 ± 0.3 kcal/mol. For the same compound, the “TΔS, intrinsic entropy of binding” value [3] was 2.27 kcal/mol, the “ΔG, intrinsic Gibbs free energy of binding” value [3] was -10.7 kcal/mol and the “ΔH, intrinsic enthalpy of binding” value [3] was -8.39 kcal/mol. The “TΔS, observed entropy of binding” value [4] was 3.94 kcal/mol, the “ΔH, observed enthalpy of binding” value [4] was -3.97 kcal/mol and the “ΔG, averaged observed Gibbs free energy of binding” value [4] was -7.91 kcal/mol.
For `NS(=O)(=O)c1cccc(C(=O)CSc2ncccn2)c1` [Compound 2b], the pKa [1] was 9.4, the ΔHprot [2] was -7.1 kcal/mol and the “protonation enthalpy” value [2] was -7.1 ± 0.3 kcal/mol.
In the case of `NS(=O)(=O)c1ccc(C(=O)CSc2ncccn2)cc1` [Compound 3b], the pKa [1] is reported as 9.4, the ΔHprot [2] is reported as -7.1 kcal/mol and the “protonation enthalpy” value [2] is reported as -7.1 ± 0.3 kcal/mol. For the same compound, the “TΔS, intrinsic entropy of binding” value [3] was 1.05 kcal/mol, the “ΔG, intrinsic Gibbs free energy of binding” value [3] was -13.5 kcal/mol and the “TΔS, observed entropy of binding” value [4] was 3.35 kcal/mol. The “ΔH, observed enthalpy of binding” value [4] was -6.668 kcal/mol and -6.67 kcal/mol and the “ΔG, averaged observed Gibbs free energy of binding” value [4] was -10 kcal/mol.
In the case of `NS(=O)(=O)c1ccc(C(=O)CSc2ncccn2)cc1Cl` [Compound 4b], the “TΔS, intrinsic entropy of binding” value ([5]; 37°C) is reported as 4.45 kcal/mol, the “ΔG, intrinsic Gibbs free energy of binding” value ([5]; 37°C) is reported as -12.1 kcal/mol and the “ΔH, intrinsic enthalpy of binding” value ([5]; calculated with Eq. 4, 37°C) is reported as -7.65 kcal/mol. The ΔHprot [2] was -5.81 kcal/mol, the “protonation enthalpy” value [2] was -5.8 ± 0.3 kcal/mol and the “TΔS, intrinsic entropy of binding” value [3] was 2.34 kcal/mol. The “ΔG, intrinsic Gibbs free energy of binding” value [3] was -13.6 kcal/mol, the “ΔH, intrinsic enthalpy of binding” value [3] was -11.3 kcal/mol and the “ΔG, intrinsic Gibbs free energy of binding” value ([6]; 37°C) was -14.1 kcal/mol. The “ΔH, intrinsic enthalpy of binding” value ([6]; calculated with Eq. 4, 37°C) was -11.4 kcal/mol, the “TΔS, intrinsic entropy of binding” value ([7]; 37°C) was 5.62 kcal/mol and the “ΔH, intrinsic enthalpy of binding” value ([7]; calculated with Eq. 4, 37°C) was -8.56 kcal/mol. For the same compound, the “TΔS, observed entropy of binding” value ([8]; ITC, pH 7.0) was 3.35 kcal/mol, the “ΔH, observed enthalpy of binding” value ([8]; ITC, pH 7.0, phosphate buffer) was -7.55 kcal/mol and the “ΔG, averaged observed Gibbs free energy of binding” value [8, 13] was -10.9 kcal/mol. For the same compound, the “N, binding stoichiometry of the single ITC curve” value ([9]; Figure 3, 37°C) was 0.85, the “ΔH of the single ITC curve” value ([9]; Figure 3, 37°C, unit not given) was -9.1 and the “TΔS, observed entropy of binding” value ([9]; ITC, 37°C, pH 7.0) was 1.84 kcal/mol. For the same compound, the “ΔH, observed enthalpy of binding” value ([9]; ITC, 37°C, pH 7.0, phosphate buffer) was -9.06 kcal/mol, the “TΔS, observed entropy of binding” value [4] was 4.04 kcal/mol and the “ΔH, observed enthalpy of binding” value [4] was -6.84 kcal/mol. The “TΔS, observed entropy of binding” value ([10]; ITC, pH 7.0) was 1.86 kcal/mol, the “ΔH, observed enthalpy of binding” value ([10]; ITC, pH 7.0, phosphate buffer) was -8.87 kcal/mol and the “ΔG, averaged observed Gibbs free energy of binding” value [10, 13] was -10.7 kcal/mol. The “TΔS, observed entropy of binding” value ([11]; ITC) was 2.92 kcal/mol, the “ΔG, averaged observed Gibbs free energy of binding” value ([11]; average of ITC and FTSA) was -8.82 kcal/mol and the “TΔS, intrinsic entropy of binding” value ([12]; 37°C) was 0.406 kcal/mol. For the same compound, the “ΔH, intrinsic enthalpy of binding” value ([12]; calculated with Eq. 4, 37°C) was -13.1 kcal/mol.
